{"source": "patent US8658670B2", "about": "(Crestone, Inc., priority 2006, dated 2014)", "key": {"[1]": {"test_system": "C. difficile strain ATCC43255 toxin A", "assay": "Toxin A production in high cell density stationary phase cultures (ELIFA)", "format": "cell-based", "conditions": "4 day old stationary phase cultures", "protocol": "C. difficile strain ATCC43255 was grown and maintained anaerobically on CDC anaerobe agar (Remel, Lenexa, Kans.). To test the effect of antibacterial agents on growth, cells were grown anaerobically for 40 h at 35° C. in 96-well brain heart infusion (BHI) broth cultures, with an initial inoculum of 10^6 CFU/mL. To test the effect of antibacterial agents on toxin production at high C. difficile cell densities, the cells were grown anaerobically for 24 h at 35° C. in 96-well brain heart infusion (BHI) broth cultures. Spent medium was then replaced with fresh broth containing MetRS inhibitors and control agents at a concentration range of 0.015-16 μg/mL. After 4 days, growth and cell viability were monitored by optical density measurements at 595 nm and by culture on CDC anaerobe agar, respectively. Culture supernatants were collected, and toxin A was detected by ELIFA (enzyme-linked immuno-flow assay) using an anti toxin A monoclonal antibody (Novus Biologicals, Centennial, Colo.)."}, "[2]": {"test_system": "clinical isolates of C. difficile", "assay": "Sporulation of C. difficile clinical isolates", "format": "cell-based"}, "[3]": {"test_system": "C. difficile", "assay": "C. difficile-infected hamster survival study", "format": "in vivo, hamsters", "protocol": "Animal studies were performed to determine the efficacy of MetRS inhibitors for treating C. difficile-infections. The MetRS inhibitors tested were two compounds of formula (II), 5-[3-((R)-6,8-Dibromo-chroman-4-ylamino)-propylamino]-4H-thieno[3,2-b]pyridine-7-one (both racemic mixture and the R enantiomer) and 5-[3-((R)-8-Bromo-6-chloro-chroman-4-ylamino)-propylamino]-4H-thieno[3,2-b]pyridin-7-one. Also tested was a compound of formula (IV), 2-(3-{3,5-Dibromo-2-[2-(4-methyl-thiazol-5-yl)-ethoxy]-benzylamino}-propylamino)-1H-quinolin-4-one.\nResults were compared to C. difficile-infected hamsters treated with the conventional antibiotic, vancomycin. Infected hamsters were treated with either a solution or suspension of a MetRS inhibitor at 5 to 50 mg/kg or vancomycin at 2.5, 5 or 25 mg/kg. There were eight hamsters per group with the final endpoint of the experiment being survival. Expired hamsters were examined for GI condition."}}, "data": [{"smiles": "Cc1ncsc1CCOc1c(Br)cc(Br)cc1CNCCCNc1cc(=O)c2sccc2[nH]1", "values": [{"measurement": "concentration inhibiting toxin production", "setting": "[1]", "value": 0.25, "unit": "µg/mL"}]}, {"smiles": "Cl.Cl.Cl.O=c1cc(NCCCNC2CCNc3c(Br)cc(Br)cc32)[nH]c2ccsc12", "note": "(stereo not drawn) [5-[3-(6,8-Dibromo-1,2,3,4-tetrahydro-quinolin-4-ylamino)-propylamino]-4H-thieno[3,2-b]pyridin-7-one tri-hydrochloride]", "values": [{"measurement": "concentration inhibiting toxin production", "setting": "[1]", "value": 0.25, "unit": "µg/mL"}]}, {"smiles": "O=c1cc(NCCCNC2CCOc3c(Br)cc(Br)cc32)[nH]c2ccsc12", "note": "(stereo not drawn) [5-[3-(6,8-Dibromo-chroman-4-ylamino)-propylamino]-4H-thieno[3,2-b]pyridin-7-one]", "values": [{"measurement": "concentration inhibiting toxin production", "setting": "[1]", "value": 0.25, "unit": "µg/mL"}]}, {"smiles": "O=c1cc(NCCCN[C@@H]2CCOc3c(Br)cc(Br)cc32)[nH]c2ccsc12", "note": "[5-[3-((R)-6,8-Dibromo-chroman-4-ylamino)-propylamino]-4H-thieno[3,2-b]pyridine-7-one]", "values": [{"measurement": "spores (ratio of spores to total cells)", "setting": "[2]; 0.25×MIC, 96 hours, all strains", "value": "< 2", "unit": "%"}, {"measurement": "spores (ratio of spores to total cells)", "setting": "[2]; 0.5×MIC, 96 hours, all strains", "value": "< 1", "unit": "%"}, {"measurement": "efficacy ranking among tested MetRS inhibitors", "setting": "[3]; infected hamsters, survival", "value": "best efficacy"}]}, {"smiles": "Cl.Cl.O=c1cc(NCCCN[C@@H]2CCOc3c(Br)cc(Br)cc32)[nH]c2ccsc12", "note": "[R-(+)-5-[3-(6,8-Dibromo-chroman-4-ylamino)-propylamino]-4H-thieno[3,2-b]pyridin-7-one di-hydrochloride]", "values": [{"measurement": "concentration inhibiting toxin production", "setting": "[1]", "value": 0.25, "unit": "µg/mL"}]}, {"smiles": "Cc1ncc([N+](=O)[O-])n1CCO", "note": "[metronidazole, reference compound]", "values": [{"measurement": "spores (ratio of spores to total cells)", "setting": "[2]; subMIC concentrations, all tested strains", "value": "up to 100%"}]}, {"smiles": "CN[C@H](CC(C)C)C(=O)N[C@H]1C(=O)N[C@@H](CC(N)=O)C(=O)N[C@H]2C(=O)N[C@H]3C(=O)N[C@H](C(=O)N[C@H](C(=O)O)c4cc(O)cc(O)c4-c4cc3ccc4O)[C@H](O)c3ccc(c(Cl)c3)Oc3cc2cc(c3O[C@@H]2O[C@H](CO)[C@@H](O)[C@H](O)[C@H]2O[C@H]2C[C@](C)(N)[C@H](O)[C@H](C)O2)Oc2ccc(cc2Cl)[C@H]1O", "note": "[vancomycin, reference compound]", "values": [{"measurement": "survival", "setting": "[3]; Day 28, vancomycin treatment (2.5, 5 or 25 mg/kg)", "value": "0-10%"}]}]}
